The record followed here is paper PMC10845951, “Characterization of a selective, iron-chelating antifungal compound that disrupts fungal metabolism and synergizes with fluconazole” (Microbiology Spectrum, 2024).

Experiment [1] relates to C. glabrata cells. Kind of experiment: ROS assay (H2DCF-DA fluorescence). The class given is cell-based, Candida glabrata. The note with it: 30 µM.
In experiment [2] the test system is C. glabrata cells. Kind of experiment: Dead cell staining with propidium iodide. The class given is cell-based, Candida glabrata. Conditions: 24 h. The protocol:
Propidium iodide (Sigma) was freshly prepared to a final concentration of 5 µg/mL in PBS.
The samples were incubated at 30°C and harvested to a total number of cells equivalent to a 5-mL culture with an OD600 of 0.3 at 6 and 24 h. As a positive control for cell death, cells treated with DMSO were incubated at 75°C for 1 h. The cells were centrifuged at 7,000 rpm for 5 minutes to remove the supernatant, followed by resuspension of the cell pellets in 100-µL 5 µg/mL propidium iodide for 10 minutes in the dark at room temperature. The supernatant was removed by centrifugation at 7,000 rpm for 5 minutes, followed by washing with 500-µL PBS and a final centrifugation at 7,000 rpm for 5 minutes. Finally, the cells were resuspended in 150-µL PBS and measured for fluorescence intensity using a microplate reader.
The autofluorescence of the unstained treated samples was subtracted from raw fluorescence intensities of the stained samples and then normalized to DMSO. Normalized values were log transformed and then analyzed using one-way ANOVA and Tukey’s HSD post hoc test.

As to `c1ccc(-c2cccc(-c3ccccn3)n2)nc1` [2,2′:6′,2′′-terpyridine], the ROS formation result in the experiment with C. glabrata cells [1] (3 or 6 h) is listed as “no ROS formation could be detected”; with C. glabrata cells [1] (24 h), “significant ROS production”. For the same compound, the “number of propidium iodide-positive cells” value in the experiment on C. glabrata cells [2] (10 µM, vs DMSO) is reported as “apparent reduction in the number of propidium iodide-positive cells”. In addition, the “mode of antifungal effect” value with C. glabrata cells [2] is “cytostatic effect”. Also, the “propidium iodide fluorescence (cell death)” value with C. glabrata cells [2] (increasing concentrations) is given as “no significant difference in fluorescence intensity compared to DMSO”.
